Results: ChEMBL document CHEMBL3508140 (2016)

Experiments:
[1] = Mean estimated half-life of epirubicin following intravenous epirubicin at 1 mg.Kg-1 dose administered approximately 25 minute prior to epirubicin once weekly for four weeks in dog; format: ADME, organism-based, Canis lupus familiaris; conditions: Beagle, plasma
[2] = Volume of distribution of 4'-epiadriamycin intravenous 4'-epiadriamycin at 1.27 mg.Kg-1 dose in dog; format: ADME, organism-based, Canis lupus familiaris; conditions: Beagle, plasma
[3] = Recovery of epirubicin following intraperitoneal epirubicin at 4 mg.Kg-1 dose in mouse; format: ADME, organism-based, CD-1, Plasma; conditions: in vivo, ip
[4] = Recovery of epirubicin following intraperitoneal epirubicin at 4 mg.Kg-1 dose in hamster; format: ADME, organism-based, Cricetulus griseus, Plasma; conditions: chinese hamster, in vivo, ip
[5] = Mortality occurred following reference intravenous epirubicin at 1 mg.Kg-1 per week in rat; format: toxicity, organism-based, SD; conditions: in vivo
[6] = Increase in serum total cholesterol level following reference intravenous epirubicin at 1 mg.Kg-1 per week in rat; format: toxicity, organism-based, SD; conditions: in vivo
[7] = Incidence of persistent proteinuria following reference intravenous epirubicin at 1 mg.Kg-1 per week in rat; format: toxicity, organism-based, SD; conditions: in vivo
[8] = Incidence of leukocyturia following reference intravenous epirubicin at 1 mg.Kg-1 per week in rat; format: toxicity, organism-based, SD; conditions: in vivo
Albumin = Albumin (Homo sapiens, UniProt P02768); test: Binding of epirubicin to albumin; format: cell-free; conditions: read-out: Plasma protein binding (converted)
Chain of Albumin (P02768 whole entry): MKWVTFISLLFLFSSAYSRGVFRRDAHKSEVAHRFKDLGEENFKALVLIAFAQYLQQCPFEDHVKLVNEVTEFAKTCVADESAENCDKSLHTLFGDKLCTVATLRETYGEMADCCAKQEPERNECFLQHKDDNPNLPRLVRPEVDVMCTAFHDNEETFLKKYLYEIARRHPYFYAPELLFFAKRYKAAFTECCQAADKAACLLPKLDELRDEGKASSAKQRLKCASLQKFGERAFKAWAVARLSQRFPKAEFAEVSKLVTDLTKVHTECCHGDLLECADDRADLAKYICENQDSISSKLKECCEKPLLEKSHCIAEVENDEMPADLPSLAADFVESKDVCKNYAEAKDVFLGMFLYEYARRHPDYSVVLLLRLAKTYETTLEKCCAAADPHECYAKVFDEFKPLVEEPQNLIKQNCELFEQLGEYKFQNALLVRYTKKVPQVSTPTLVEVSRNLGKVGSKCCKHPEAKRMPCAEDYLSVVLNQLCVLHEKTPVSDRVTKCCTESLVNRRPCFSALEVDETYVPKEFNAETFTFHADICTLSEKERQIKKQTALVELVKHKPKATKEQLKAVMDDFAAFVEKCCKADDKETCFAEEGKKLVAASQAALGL

[9] = Urinary excretion of epirubicin following epirubicin at 60-150 mg.m-2 dose in cancer patients; format: ADME, organism-based; conditions: human, urine; read-out: Compound recovery
[10] = Cumulative urinary excretion of epirubicin and its metabolites following epirubicin at 60-150 mg.m-2 dose in cancer patients; format: ADME, organism-based, Urine; conditions: human, in vivo
[11] = Percentage of epirubicin excreted unchanged in urine following epirubicin at 60 mg.m-2 dose in cancer patients; format: ADME, organism-based; conditions: human, at 60 mg/m2, read-out: Compound recovery
[12] = Mean plasma clearance of epirubicin following intravenous epirubicin at 150 mg.m-2 dose in advanced cancer patients; format: ADME, organism-based; conditions: human, read-out: CLp (converted)
[13] = Mean AUC of epirubicin following intravenous epirubicin at 60 mg.m-2 dose in cancer patients; format: ADME, organism-based; conditions: human, plasma
[14] = Half-life of terminal elimination phase of epirubicin following intravenous epirubicin at 60-90 mg.m-2 dose in cancer patients; format: ADME, organism-based; conditions: human, plasma
[15] = Volume of distribution as steady state of epirubicin following intravenous epirubicin at 60-90 mg.m-2 dose in cancer patients; format: ADME, organism-based, Plasma; conditions: human, in vivo
[16] = Plasma clearance of epirubicin following intravenous epirubicin at 30-90 mg.m-2 dose in cancer patients; format: ADME, organism-based; conditions: human, in vivo
[17] = Volume of distribution as steady state of epirubicin following intravenous epirubicin at 30-90 mg.m-2 dose in cancer patients; format: ADME, organism-based, Plasma; conditions: human, in vivo
[18] = Terminal elimination of metabolite of epirubicin following intravenous epirubicin at 30-90 mg.m-2 dose in cancer patients; format: ADME, organism-based, Plasma; conditions: human, in vivo
[19] = Initial phase half-life of epirubicin following intravenous epirubicin at 60 mg.m-2 dose in cancer patients; format: ADME, organism-based, Plasma; conditions: human, in vivo
[20] = Half-life of terminal elimination phase of epirubicin following intravenous epirubicin at 60 mg.m-2 dose in cancer patients; format: ADME, organism-based; conditions: human, plasma
[21] = Plasma clearance of epirubicin following intravenous epirubicin at 20 mg.m-2 dose in cancer patients; format: ADME, organism-based; conditions: human, in vivo
[22] = Initial phase half-life of epirubicin following intravenous epirubicin at 75 mg.m-2 dose in cancer patients; format: ADME, organism-based, Plasma; conditions: human, in vivo
[23] = Intermediate phase half-life of epirubicin following intravenous epirubicin at 75 mg.m-2 dose in cancer patients; format: ADME, organism-based, Plasma; conditions: human, in vivo
[24] = Initial phase half-life of epirubicin following intravenous epirubicin at 70 mg.m-2 dose in cancer patients; format: ADME, organism-based, Plasma; conditions: human, in vivo
[25] = Intermediate phase half-life of epirubicin following intravenous epirubicin at 40-60 mg.m-2 dose in cancer patients; format: ADME, organism-based, Plasma; conditions: human, in vivo
[26] = Volume of distribution as steady state of epirubicin following intravenous epirubicin at 40-60 mg.m-2 dose in cancer patients; format: ADME, organism-based, Plasma; conditions: human, in vivo
[27] = Plasma clearance of epirubicin following intravenous epirubicin at 50 mg.m-2 dose in cancer patients; format: ADME, organism-based; conditions: human, in vivo
[28] = Terminal elimination of metabolite of epirubicin following intravenous epirubicin at 50 mg.m-2 dose in cancer patients; format: ADME, organism-based, Plasma; conditions: human, in vivo
[29] = Plasma clearance of epirubicin following intravenous epirubicin at 25-35 mg.m-2 dose in cancer patients; format: ADME, organism-based; conditions: human, in vivo
[30] = Volume of distribution as steady state of epirubicin following intravenous epirubicin at 25-35 mg.m-2 dose in cancer patients; format: ADME, organism-based, Plasma; conditions: human, in vivo
[31] = Terminal elimination of metabolite of epirubicin following intravenous epirubicin at 25-35 mg.m-2 dose in cancer patients; format: ADME, organism-based, Plasma; conditions: human, in vivo
[32] = Plasma clearance of epirubicin following intravenous epirubicin at 75-90 mg.m-2 dose in cancer patients; format: ADME, organism-based; conditions: human, in vivo
[33] = Volume of distribution as steady state of epirubicin following intravenous epirubicin at 75-90 mg.m-2 dose in cancer patients; format: ADME, organism-based, Plasma; conditions: human, in vivo
[34] = Detection of epirubicin in plasma following single intravenous epirubicin at 10 mg.Kg-1 dose in female mouse bearing colon tumor; format: ADME, organism-based, BALB/c; conditions: in vivo
[35] = Detection of epirubicin in tumor following single intravenous epirubicin at 10 mg.Kg-1 dose in female mouse bearing colon tumor; format: ADME, organism-based, BALB/c, Neoplasm; conditions: in vivo
[36] = Half-life of epirubicin in plasma following single intravenous epirubicin at 10 mg.Kg-1 dose in female mouse bearing colon tumor; format: ADME, organism-based; conditions: BALB/c
[37] = (§1) Urinary elimination of 4'-epiadriamycin following intravenous bolus 4'-epiadriamycin at 10 mg.Kg-1 dose in rat; format: ADME, organism-based; conditions: SD, urine, read-out: Compound recovery
[38] = as §1; format: ADME, organism-based; conditions: SD, urine, read-out: Compound recovery; remark: listed apart in the source
[39] = Terminal half-life of epirubicin following intravenous epirubicin at 1 mg.Kg-1 dose in rabbit; format: ADME, organism-based, Oryctolagus cuniculus; conditions: both, New Zealand White, plasma
[40] = Plasma clearance of epirubicin following intravenous epirubicin at 1 mg.Kg-1 dose in rabbit; format: ADME, organism-based, Oryctolagus cuniculus; conditions: both, New Zealand White
[41] = Plasma clearance of epirubicin following intravenous epirubicin at 3 mg.Kg-1 dose in rabbit; format: ADME, organism-based, Oryctolagus cuniculus; conditions: both, New Zealand White
[42] = (§2) Terminal half-life of epirubicinol following intravenous epirubicin at 1 mg.Kg-1 dose in rabbit; format: ADME, organism-based, Oryctolagus cuniculus, New Zealand White, Plasma; conditions: in vivo
[43] = as §2; format: ADME, organism-based, Oryctolagus cuniculus, New Zealand White, Plasma; conditions: in vivo; remark: listed apart in the source
[44] = AUC of epirubicin following intravenous epirubicin emulsion at 1 mg.Kg-1 dose in rabbit; format: ADME, organism-based, Oryctolagus cuniculus; conditions: both, New Zealand White, blood
[45] = Plasma clearance of epirubicin following intravenous epirubicin emulsion at 1 mg.Kg-1 dose in rabbit; format: ADME, organism-based, Oryctolagus cuniculus, Blood; conditions: both, New Zealand White
[46] = Terminal half-life of epirubicin following intravenous epirubicin emulsion at 1 mg.Kg-1 dose in rabbit; format: ADME, organism-based, Oryctolagus cuniculus; conditions: both, New Zealand White, blood
[47] = AUC of epirubicin following intrahepatic epirubicin solution at 1 mg.Kg-1 dose in rabbit; format: ADME, organism-based, Oryctolagus cuniculus; conditions: both, New Zealand White, blood
[48] = AUC of epirubicin following intrahepatic epirubicin emulsion at 1 mg.Kg-1 dose in rabbit; format: ADME, organism-based, Oryctolagus cuniculus; conditions: both, New Zealand White, blood
[49] = Plasma clearance of epirubicin following intrahepatic epirubicin emulsion at 1 mg.Kg-1 dose in rabbit; format: ADME, organism-based, Oryctolagus cuniculus, Blood; conditions: both, New Zealand White
[50] = Volume of distribution of epirubicin following intrahepatic epirubicin solution at 1 mg.Kg-1 dose in rabbit; format: ADME, organism-based, Oryctolagus cuniculus; conditions: both, New Zealand White, blood
[51] = Terminal half-life of epirubicin following intrahepatic epirubicin solution at 1 mg.Kg-1 dose in rabbit; format: ADME, organism-based, Oryctolagus cuniculus; conditions: both, New Zealand White, blood
[52] = Mean AUC (8-48 h) of epirubicin following intravenous epirubicin at 1 mg.Kg-1 dose administered approximately 25 minute prior to epirubicin once weekly for four weeks in dog; format: ADME, organism-based, Canis lupus familiaris; conditions: Beagle, plasma

Q: With COc1cccc2c1C(=O)c1c(O)c3c(c(O)c1C2=O)C[C@@](O)(C(=O)CO)C[C@@H]3O[C@H]1C[C@H](N)[C@@H](O)[C@H](C)O1.Cl [EPIRUBICIN HYDROCHLORIDE] as the molecule, how does the half-life [1] read?
A: 51.1 h

Q: What about the Vd [2] of the same molecule?
A: 71.9 L/kg

Q: What about the Compound recovery [3] of the same molecule?
A: 49 10^-9M

Q: What about the Compound recovery [4] of the same molecule?
A: 83 10^-9M

Q: And the Mortality [5]?
A: OUTCOME = Observed, N_AFFECTED = 5

Q: And the CHOL_CHANGE [6]?
A: OUTCOME = Increased

Q: What about the Incidence [7] of the same molecule?
A: OUTCOME = Observed

Q: And the Incidence [8]?
A: OUTCOME = Observed

Q: What about the fraction unbound (Albumin) of the same molecule?
A: 0.43

Q: What about the dose excreted at 168 h [9] of the same molecule?
A: 3.2%

Q: What about the Radiolabel recovery [10] of the same molecule?
A: 5.9%

Q: What about the dose excreted at 7 Day [11] of the same molecule?
A: 6.4%

Q: And the clearance [12]?
A: 1130 mL/min

Q: And the AUC [13]?
A: 1500 ng·h/mL

Q: And the half-life [14]?
A: 40 h

Q: And the Vss [15]?
A: 1844 L.m-2

Q: What about the CLp [16] of the same molecule?
A: 48 L.h-1.m-2

Q: What about the Vss [17] of the same molecule?
A: 1858 L.m-2

Q: And the t1/2 [18]?
A: 32.2 h

Q: What about the t1/2 [19] of the same molecule?
A: 2.92 min

Q: And the half-life [20]?
A: 31.4 h

Q: And the CLp [21]?
A: 71.5 L.h-1.m-2

Q: And the t1/2 [22]?
A: 5.4 min

Q: And the t1/2 [23]?
A: 1.7 h

Q: And the t1/2 [24]?
A: 3.15 min

Q: What about the t1/2 [25] of the same molecule?
A: 0.49 h

Q: What about the Vss [26] of the same molecule?
A: 592 L.m-2

Q: And the CLp [27]?
A: 37 L.h-1.m-2

Q: What about the t1/2 [28] of the same molecule?
A: 21.1 h

Q: What about the CLp [29] of the same molecule?
A: 41.5 L.h-1.m-2

Q: What about the Vss [30] of the same molecule?
A: 925 L.m-2

Q: And the t1/2 [31]?
A: 21.1 h

Q: And the CLp [32]?
A: 94.9 L.h-1.m-2

Q: And the Vss [33]?
A: 1432 L.m-2

Q: And the Compound recovery [34]?
A: OUTCOME = Observed

Q: What about the Compound recovery [35] of the same molecule?
A: OUTCOME = Observed

Q: And the half-life [36]?
A: 15.6 h

Q: And the dose excreted [37]?
A: 2.43%

Q: What about the dose excreted [38] of the same molecule?
A: 4.83%

Q: What about the half-life [39] of the same molecule?
A: 22.9 h

Q: And the clearance [40]?
A: 196 mL/min

Q: And the clearance [41]?
A: 323 mL/min

Q: And the t1/2 [42]?
A: 0.63 h

Q: What about the t1/2 [43] of the same molecule?
A: 13.97 h

Q: What about the AUC [44] of the same molecule?
A: 134 ng·h/mL

Q: What about the clearance [45] of the same molecule?
A: 1560 mL/min

Q: What about the half-life [46] of the same molecule?
A: 0.628 h

Q: What about the AUC [47] of the same molecule?
A: 65.5 ng·h/mL

Q: And the AUC [48]?
A: 36.4 ng·h/mL

Q: And the CL/F [49]?
A: 3780 mL/min

Q: And the Vd [50]?
A: 129 L/kg

Q: What about the half-life [51] of the same molecule?
A: 1.14 h

Q: And the AUC [52]?
A: 233 ng·h/mL
